# From patent US6841535B2, “Peptide-mediated transfection agents and methods of use” (Active Motif, priority 2000, dated 2005)
# *1 amine or outer side, *2 acyl side, *3 side chain or, on linkers, in order; H or OH if unused. Where a SMILES comes first, the peptide text is derived from it. Where no end group is shown, it is not given here. Cysteamide = C(CS[*:3])N[*:1]
# Experiments:
# [1] = system: β subunit of Ca^2+ channels; experiment: Ba2+ current density of treated H9C2 cells; assay type: cell-based; details: all labeled cells
# Method: (§1) For the second ODN, the situation is clearer. This ODN conjugated 3′ with fluorescein and containing an SH group in 5′ for localization reasons has the sequence 5′-[…]-3′ (SEQ ID NO:31) and corresponds to the AS-βCOM antisense sequence complementary to conserved sequence region found in every mRNA encoding β subunit of Ca^2+ channels. After 5 min incubation at 37° C., more than 90% of the cells (cardiac cell line H9C2) were labeled in the nucleus while only 25% of the cells were labeled after 3 hours incubation when using the free ODN.
# [2] = system: cardiac cell line H9C2; experiment: Nuclear labeling of cells by fluorescein ODN-peptide conjugate; assay type: cell-based
# Method: as §1
# [3] = system: HS-68, NIH 3T3, C2C12, COS-7 and CEM-SS cell lines; experiment: Cytotoxicity of MPG and MPG/DNA complex, MTT colorimetric assay; assay type: cell-based
# Method: In order to generalize the use of MPG as an efficient delivery agent, the degree of cytotoxicity of MPG and of the MPG/DNA complex (charge ratio 5:1) were evaluated in several cell lines, including HS-68 and NIH 3T3 fibroblasts, C212 myoblasts, COS-7 kidney cells and human CEM-SS lymphoblasts. […] At much higher concentrations of 0.1 and 1 mM MPG, however, cell viability decreased by ˜25 and 60%, respectively.
# The cytotoxicity of both MPG and MPG/plasmid (pRL-SV40 plasmid encoding reporter R.reniformis luciferase) complexes were investigated in the cell lines mentioned above. Cells grown in 35 mm diameter dishes to 75% confluency (0.5-1×10^6 cells per dish) were incubated with 0.1 μM to 1 mM MPG alone or complexed with DNA in a 5:1 ratio, in 1 ml DMEM for 3 h, after which 10% serum was added. Cell culture medium with MPG or MPG/plasmid was not changed, and cell proliferation was measured over 4 days. Cytotoxicity was evaluated by the MTT colorimetric assay, after removing cell culture medium and replacing it with PBS containing 5 mg/ml of MTT (Mosmann, T. (1983) J. Immunol. Methods, 65: 55-63). Results shown correspond to the averages of four separate experiments.
# HS-68, NIH 3T3, C2C12, cos-7 and CEM-SS cell lines were incubated with 0.1 μM to 1 mM MPG alone (A) and with MPG complexed with DNA (pRL-SV40 plasmid encoding R.reniformis luciferase) in a peptide/DNA ratio of 5:1 (B), at 37° C. in DMEM supplemented with 10% FCS. The cytotoxicity of MPG alone and of MPG/DNA complexes was evaluated in MTT colorimetric assays and the results were expressed as percentages of dye reduction in cell lines incubated without MPG. The results correspond to averages of four separate experiments.
# [4] = physiological conditions; cited from earlier work
# [5] = system: HS68, NIH 3T3 and 293 cell lines; experiment: Toxicity of Pep-2 in cell lines (MTT staining); details: concentration of 1 mM
# [6] = system: mammalian fibroblasts, NIH 3T3 fibroblasts or murine L1210 lymphocytes; experiment: Cellular localization of lucifer yellow-linked peptides; assay type: cell-based; details: 3 min incubation at 10 μM
# [7] = system: Acheloplasma laidlawii and Spiroplasma melliferum; details: concentrations much lower than minimal inhibitory concentrations; cited from earlier work
# [8] = phosphatidylcholine or phosphatidylserine monolayers; cited from earlier work
# [9] = Transmembrane ionic channel formation; parameters: species or system Xenopus laevis; details: voltage-triggered insertion
# Excerpt: They were characterized on Xenopus laevis oocyte plasma membranes and confirmed on planar lipid bilayers proving thus that channel formation is a true property of the peptide (FIG. 11). The insertion of the peptide in the membrane is voltage-triggered and the channel thus formed are selective for monovalent cations.
# [10] = system: HS-68 and NIH 3T3 cell lines; experiment: Peptide delivery by vector peptides (fluorescently labeled peptide B / peptide A); assay type: cell-based; details: transfection of fluorescently labeled peptide; one micromolar vector peptide; 1 h
# Method: (§2) We evaluated the ability of peptides designed according to principles described herein, as well as variants thereof, to deliver peptides and proteins into HS-68 and NIH 3T3 cell lines. Peptide delivery was performed with a 32 mer peptide (peptide B), and in some cases a […] peptide (peptide A). The peptides were fluorescently labeled. Peptides (5.0×10^−8M or 5.0×10^−7M) were incubated with one micromolar vector peptide in cell culture medium in the absence of serum for 30 min. Cultured cells (0.5 to 1.0×10^6) were then overlaid with the preformed peptide/vector peptide complexes in 500 μL DMEM for one hour in the presence or absence of FCS. Complexes were formed prior to addition of FCS to avoid interactions between ep-vector and serum proteins. Following this transfection step, fresh DMEM supplemented with serum was added for another hour. Then cells were extensively washed, fixed and analyzed by fluorescence microscopy.
# (§3) The results of the experiments testing the transfection properties of the peptides are presented as a table in which the sequences are aligned for optimal comparison: […]
# [11] = system: HS-68 and NIH 3T3 cell lines; experiment: Drug delivery by vector peptides (ANS and Bis-ANS); assay type: cell-based; details: transfection of ANS and Bis-ANS; incubated with peptide at a molar ratio of 1:20; 1 h
# Method: For investigation of drug delivery, we used the naphthalene derivatives ANS and Bis-ANS, which have intrinsic fluorescence. The drugs was incubated with peptide at a molar ratio of 1:20, followed by overlay of the complex onto cultured cells. This was followed by incubation for 1 h. Then cells were extensively washed and observed by microscopy.
# as §3
# [12] = system: HS-68 and NIH 3T3 cell lines; experiment: Protein delivery by vector peptides (GFP); assay type: cell-based; details: transfection of GFP; incubated with peptide at a molar ratio of 1:20; 1 h
# Method: as §2
# To investigate protein delivery we tested the delivery into cells of the fluorescent protein GFP. The protein was incubated with peptide at a molar ratio of 1:20, followed by overlay of the complex onto cultured cells. This was followed by incubation for 1 h. Then cells were extensively washed and fixed with formalin before observation.
# as §3
# [13] = system: human fibroblasts (HS-68); experiment: Cellular localization of rhodamine-labeled ODN-peptide conjugate; assay type: cell-based
# Method: The first ODN has the sequence d(GGTCTTACTCTCCGTCTCT) (SEQ ID NO:30). It was modified in 5′ by a hexamethylene-bridged pyridyldisulfide and in 3′ by a 2-propanol-3-amino group and labeled with rhodamine. Conjugation was performed by stirring a solution of the oligonucleotide with a three fold excess of peptide for 3 h. […] The target compartment of the conjugate remains to be identified.
compound,measurement,setting,value
"5′-ACCAGCCTTCCGATCCACCAGTCATT-3′ (DNA, backbone not given here; 3' fluorescein conjugate, 5' thiol group, peptide conjugated) [second ODN]",reduction of Ba^2+ current density,[1],≈ 7 fold
same,cells labeled in the nucleus,"[2]; ODN conjugated to peptide, 5 min incubation at 37° C.",more than 90%
same,cells labeled,"[2]; free ODN, 3 hours incubation",25%
CSCC[C@H](NC(=O)[C@@H](NC(=O)[C@H](CO)NC(=O)CNC(=O)[C@H](C)NC(=O)[C@H](C)NC(=O)CNC(=O)[C@H](CC(C)C)NC(=O)[C@H](Cc1ccccc1)NC(=O)CNC(=O)[C@H](CC(C)C)NC(=O)[C@H](Cc1ccccc1)NC(=O)[C@H](CC(C)C)NC(=O)[C@H](C)NC(=O)CNC(C)=O)[C@@H](C)O)C(=O)NCC(=O)N[C@@H](C)C(=O)N[C@@H](Cc1c[nH]c2ccccc12)C(=O)N[C@@H](CO)C(=O)N[C@@H](CCC(N)=O)C(=O)N1CCC[C@H]1C(=O)N[C@@H](CCCCN)C(=O)N[C@@H](CO)C(=O)N[C@@H](CCCCN)C(=O)N[C@@H](CCCNC(=N)N)C(=O)N[C@@H](CCCCN)C(=O)N[C@H](C(=O)NCCS)C(C)C [MPG] (Ac-GALFLGFLGAAGSTMGAWSQPKSKRKV-Cysteamide),decrease of cell viability,[3]; MPG alone 0.1 mM,~25%
same,decrease of cell viability,[3]; MPG alone 1 mM,~60%
same,cytotoxic effects,"[3]; MPG alone up to 10 μM, 48 h at 37° C.",did not induce any cytotoxic effects
same,cytotoxicity,"[3]; MPG complexed with pRL-SV40 at 5:1 ratio, 0.1 mM MPG",no cytotoxicity could be observed
same,decrease of cell viability,"[3]; MPG complexed with pRL-SV40 at 5:1 ratio, 1 mM MPG",~40%
same,solubility,[4],highly soluble
CC(=O)N[C@@H](Cc1ccc(O)cc1)C(=O)NCC(=O)N[C@@H](Cc1ccccc1)C(=O)N[C@@H](CCCCN)C(=O)N[C@@H](CCCCN)C(=O)N[C@@H](CCCNC(=N)N)C(=O)N[C@@H](CCCNC(=N)N)C(=O)N[C@@H](Cc1c[nH]c2ccccc12)C(=O)N[C@@H](CO)C(=O)N[C@@H](CCC(N)=O)C(=O)N1CCC[C@H]1C(=O)N[C@@H](CCCCN)C(=O)N[C@@H](CCC(=O)O)C(=O)N[C@H](C(=O)N[C@@H](Cc1c[nH]c2ccccc12)C(=O)N[C@@H](CCC(=O)O)C(=O)N[C@H](C(=O)N[C@@H](Cc1c[nH]c2ccccc12)C(=O)N[C@@H](Cc1c[nH]c2ccccc12)C(=O)N[C@H](C(=O)N[C@@H](CCC(=O)O)C(=O)NCCS)[C@@H](C)O)[C@@H](C)O)[C@@H](C)O [Pep-1-cya] (Ac-YGFKKRRWSQPKETWETWWTE-Cysteamide),decrease of cell viability,[5],about 10%
GALFLGWLGAAGSTMGARKKKRKV (Ac-GALFLGWLGAAGSTMGARKKKRKV; not fully specified (C-terminus); printed as GALFLGWLGAAGSTMGARKKKRKV) [[4]],final localization of lucifer yellow-linked peptide,[6],remains membrane associated
GALFLGWLGAAGSTMGAWSQPKKKRKV (Ac-GALFLGWLGAAGSTMGAWSQPKKKRKV; not fully specified (C-terminus); printed as GALFLGWLGAAGSTMGAWSQPKKKRKV) [[3]],final localization of lucifer yellow-linked peptide,[6],"both localizations, membrane associate and nuclear"
MGLGLHLLVLAAALQGAKKKRKV (Ac-MGLGLHLLVLAAALQGAKKKRKV; not fully specified (C-terminus); printed as MGLGLHLLVLAAALQGAKKKRKV) [[2]],effect on membrane potential and transmembrane pH gradient,[7],decrease
same,surface pressure increase,[8],~15 mN/m
same,final localization of lucifer yellow-linked peptide,[6],localize in the nuclei of the cells
same,channel formation,[9],induce formation of transmembrane ionic channels
MGLGLHLLVLAAALQGAWSQPKKKRKV (Ac-MGLGLHLLVLAAALQGAWSQPKKKRKV; not fully specified (C-terminus); printed as MGLGLHLLVLAAALQGAWSQPKKKRKV) [[1]],effect on membrane potential and transmembrane pH gradient,[7],decrease
same,surface pressure increase,[8],~15 mN/m
same,final localization of lucifer yellow-linked peptide,[6],localize in the nuclei of the cells
Tyr Gly Phe Lys Lys Arg Arg Gln Thr Trp Trp Glu Thr Trp Trp Thr Glu (Ac-YGFKKRRQTWWETWWTE-Cysteamide) [Pep-1.2-cya],Pep,[10],80%
same,Drug,[11],5%
same,Pro,[12],80-90%
Tyr Gly Phe Lys Lys Phe Arg Lys Pro Trp Thr Trp Trp Glu Thr Trp Trp Thr Glu (Ac-YGFKKFRKPWTWWETWWTE-Cysteamide; SMILES CC(=O)N[C@@H](Cc1ccc(O)cc1)C(=O)NCC(=O)N[C@@H](Cc1ccccc1)C(=O)N[C@@H](CCCCN)C(=O)N[C@@H](CCCCN)C(=O)N[C@@H](Cc1ccccc1)C(=O)N[C@@H](CCCNC(=N)N)C(=O)N[C@@H](CCCCN)C(=O)N1CCC[C@H]1C(=O)N[C@@H](Cc1c[nH]c2ccccc12)C(=O)N[C@H](C(=O)N[C@@H](Cc1c[nH]c2ccccc12)C(=O)N[C@@H](Cc1c[nH]c2ccccc12)C(=O)N[C@@H](CCC(=O)O)C(=O)N[C@H](C(=O)N[C@@H](Cc1c[nH]c2ccccc12)C(=O)N[C@@H](Cc1c[nH]c2ccccc12)C(=O)N[C@H](C(=O)N[C@@H](CCC(=O)O)C(=O)NCCS)[C@@H](C)O)[C@@H](C)O)[C@@H](C)O) [Pep-3-cya],Pep,[10],50%
same,Drug,[11],50-70%
same,Pro,[12],5%
"d(GGTCTTACTCTCCGTCTCT) (DNA, backbone not given here; 5' hexamethylene pyridyldisulfide, 3' 2-propanol-3-amino, rhodamine label, peptide conjugated) [first ODN]",cellular localization of the conjugate,"[13]; ODN conjugated to peptide, 5 min incubation",clearly cytoplasmic but not nuclear
same,cellular internalization of the free oligonucleotide,"[13]; free, not conjugated",no spontaneous cellular internalization could be detected
